Source: patent publication US7365174B2, “Azalide and azalactam derivatives and method for producing the same” (Meiji Seika Kaisha, Ltd., priority 2003, dated 2008)
≈ marks a conversion by molar mass, not a printed value. Like-named read-outs stand apart in the source and are kept apart here.

How the values were obtained:
Assay in all cases: Antibacterial activity test (agar dilution MIC)
Assay type in all cases: cell-based
[1] = test system: Streptococcus pneumoniae IP692; settings: read-out: Minimum inhibitory concentration (MIC)
Description: (§1) In vitro antibacterial activities of the compounds of Examples 13, 28, 35, 43, 53 to 55, 64, 70, 84, 90, 94, 95, 108, 128, and 129 were measured as follows by referring to the standard method of the Japanese Society of Chemotherapy (Chemotherapy, Vol. 29, pp. 76-79, 1981). The antibacterial activity of midecamycin (MDM) was similarly measured for comparison.
(§2) Using each solution of the test substance prepared in methanol at a concentration of […], 2-fold serial dilutions were prepared by using methanol. Each of the prepared solutions of the test substances was put into a petri dish in a volume of 200 μl, added with 10 ml of agar medium for sensitivity measurement added with 5% horse sterile defibrinated blood, 15 μg/ml of β-nicotinamide-adenine dinucleotide, and 2.5 μg/ml of Hemin, and mixed for dilution to prepare an agar plate containing a test substance. A predetermined volume of a liquid medium for sensitivity measurement, prepared so as to contain a given number of test bactera, was inoculated on the agar plate containing a test substance by using a micro planter (Sakuma Seisakusho), and after the inoculation, the bacteria were cultured at 37° C. for about 20 hours. After the culture, presence or absence of growth of the test bacteria on the plate was observed by visual inspection, and the minimum concentration at which growth was not observed was determined as the minimum inhibitory concentration (MIC) of the test sustance.

[2] = test system: Haemophilus influenzae 9334; settings: read-out: Minimum inhibitory concentration (MIC)
Description: as §1, §2

[3] = test system: Staphylococcus aureus 209P JC-1; settings: read-out: Minimum inhibitory concentration (MIC)
Description: as §1, §2

[4] = test system: Streptococcus pneumoniae DP1 TypeI; settings: DP1TYPEI, read-out: Minimum inhibitory concentration (MIC)
Description: as §1, §2

[5] = test system: Streptococcus pyogenes Cook; settings: read-out: Minimum inhibitory concentration (MIC)
Description: as §1, §2

[6] = test system: Moraxella catarrhalis W-0506; settings: read-out: Minimum inhibitory concentration (MIC)
Description: as §1, §2

[7] = test system: Streptococcus pneumoniae TH-662; settings: read-out: Minimum inhibitory concentration (MIC)
Description: as §1, §2

[8] = test bacterium C = Streptococcus pneumoniae IP692, blood agar medium, 37° C., about 20 hours
[9] = test bacterium G = Haemophilus influenzae 9334, blood agar medium, 37° C., about 20 hours
[10] = test bacterium A = Staphylococcus aureus 209P JC-1, blood agar medium, 37° C., about 20 hours
[11] = test bacterium B = Streptococcus pneumoniae DP1 TypeI, blood agar medium, 37° C., about 20 hours
[12] = test bacterium E = Streptococcus pyogenes Cook, blood agar medium, 37° C., about 20 hours
[13] = W0506, test bacterium F = Moraxella catarrhalis W-0506, blood agar medium, 37° C., about 20 hours
[14] = TH662, test bacterium D = Streptococcus pneumoniae TH-662, blood agar medium, 37° C., about 20 hours

SMILES	MIC [1, 8] [µg/mL]	MIC [2, 9] [µg/mL]	MIC [3, 10] [µg/mL]	MIC [4, 11] [µg/mL]	MIC [5, 12] [µg/mL]	MIC [6, 13] [µg/mL]	MIC [7, 14] [µg/mL]	MIC ([1]; Streptococcus pneumoniae, IP692, 20 h) [µg/mL]	MIC ([2]; Haemophilus influenzae, 9334, 20 h) [µg/mL]	MIC ([3]; Staphylococcus aureus, 209P, 20 h) [µg/mL]	MIC ([4]; Streptococcus pneumoniae, 20 h) [µg/mL]	MIC ([5]; Streptococcus pyogenes, 20 h) [µg/mL]	MIC ([6]; Moraxella catarrhalis, W0506, 20 h) [µg/mL]	MIC ([7]; Streptococcus pneumoniae, TH662, 20 h) [µg/mL]
CCC(=O)O[C@@H]1CC(=O)O[C@@H](C/C=C/c2ccc3ccccc3c2)CCCN(C)C[C@H](O)[C@H](C)C[C@H](CC=O)[C@H](O[C@@H]2OC(C)[C@@H](O[C@H]3CC(C)(O)[C@@H](OC(=O)CC)C(C)O3)C(N(C)C)C2O)[C@H]1OC (some centres unmarked) [Example 84]	0.06 (≈ 0.0609 µM)	8 (≈ 8.12 µM)	0.5 (≈ 0.507 µM)	0.06 (≈ 0.0609 µM)	0.25 (≈ 0.254 µM)	2 (≈ 2.03 µM)	8 (≈ 8.12 µM)	–	–	–	–	–	–	–
CCC(=O)O[C@@H]1CC(=O)O[C@@H](C/C=C/c2cnc3ncccc3c2)CCCN(C)C[C@H](O)[C@H](C)C[C@H](CC=O)[C@H](O[C@@H]2OC(C)[C@@H](O[C@H]3CC(C)(OC(C)=O)[C@@H](OC(=O)CC)C(C)O3)C(N(C)C)C2O)[C@H]1OC (some centres unmarked) [Example 94]	0.03 (≈ 0.0291 µM)	4 (≈ 3.89 µM)	0.5 (≈ 0.486 µM)	0.015 (≈ 0.0146 µM)	0.06 (≈ 0.0583 µM)	1 (≈ 0.972 µM)	0.5 (≈ 0.486 µM)	–	–	–	–	–	–	–
CCC(=O)O[C@@H]1CC(=O)O[C@@H](C/C=C/c2cccc(-c3cccnc3)c2)CCCN(C)C[C@H](O)[C@H](C)C[C@H](CC=O)[C@H](O[C@@H]2OC(C)[C@@H](O[C@H]3CC(C)(OC(C)=O)[C@@H](OC(=O)CC)C(C)O3)C(N(C)C)C2O)[C@H]1OC (some centres unmarked) [Example 108]	0.06 (≈ 0.0569 µM)	8 (≈ 7.59 µM)	0.5 (≈ 0.474 µM)	0.03 (≈ 0.0285 µM)	0.13 (≈ 0.123 µM)	2 (≈ 1.9 µM)	0.5 (≈ 0.474 µM)	–	–	–	–	–	–	–
CCC(=O)O[C@@H]1CC(=O)O[C@H](C)C/C=C/C=C/[C@H](O)[C@H](C)C[C@H](CC=O)[C@H](O[C@@H]2O[C@H](C)[C@@H](O[C@H]3C[C@@](C)(O)[C@@H](OC(=O)CC)[C@H](C)O3)[C@H](N(C)C)[C@H]2O)[C@H]1OC [MDM, midecamycin, reference compound]	–	–	–	–	–	–	–	0.5 (≈ 0.614 µM)	2 (≈ 2.46 µM)	0.5 (≈ 0.614 µM)	0.25 (≈ 0.307 µM)	0.25 (≈ 0.307 µM)	2 (≈ 2.46 µM)	> 128

More lines, main results first:

MIC [1, 8] [µg/mL]	MIC [2, 9] [µg/mL]	MIC [3, 10] [µg/mL]	MIC [4, 11] [µg/mL]	MIC [5, 12] [µg/mL]	MIC [6, 13] [µg/mL]	MIC [7, 14] [µg/mL]	SMILES	MIC ([1]; Streptococcus pneumoniae, IP692, 20 h) [µg/mL]	MIC ([2]; Haemophilus influenzae, 9334, 20 h) [µg/mL]	MIC ([3]; Staphylococcus aureus, 209P, 20 h) [µg/mL]	MIC ([4]; Streptococcus pneumoniae, 20 h) [µg/mL]	MIC ([5]; Streptococcus pyogenes, 20 h) [µg/mL]	MIC ([6]; Moraxella catarrhalis, W0506, 20 h) [µg/mL]	MIC ([7]; Streptococcus pneumoniae, TH662, 20 h) [µg/mL]
0.03 (≈ 0.0292 µM)	4 (≈ 3.89 µM)	0.25 (≈ 0.243 µM)	0.015 (≈ 0.0146 µM)	0.03 (≈ 0.0292 µM)	1 (≈ 0.973 µM)	0.25 (≈ 0.243 µM)	CCC(=O)O[C@@H]1CC(=O)O[C@@H](C/C=C/c2cnc3ccccc3c2)CCCN(C)C[C@H](O)[C@H](C)C[C@H](CC=O)[C@H](O[C@@H]2OC(C)[C@@H](O[C@H]3CC(C)(OC(C)=O)[C@@H](OC(=O)CC)C(C)O3)C(N(C)C)C2O)[C@H]1OC (some centres unmarked) [Example 90]	–	–	–	–	–	–	–
0.13 (≈ 0.127 µM)	32 (≈ 31.2 µM)	1 (≈ 0.973 µM)	0.06 (≈ 0.0584 µM)	0.25 (≈ 0.243 µM)	4 (≈ 3.89 µM)	1 (≈ 0.973 µM)	CCC(=O)O[C@@H]1CC(=O)O[C@@H](C/C=C/c2ccc3ccccc3c2)CCCN(C)C[C@H](O)[C@H](C)C[C@H](CC=O)[C@H](O[C@@H]2OC(C)[C@@H](O[C@H]3CC(C)(OC(C)=O)[C@@H](OC(=O)CC)C(C)O3)C(N(C)C)C2O)[C@H]1OC (some centres unmarked) [Example 95]	–	–	–	–	–	–	–
0.03 (≈ 0.03 µM)	16 (≈ 16 µM)	0.5 (≈ 0.5 µM)	0.03 (≈ 0.03 µM)	0.06 (≈ 0.06 µM)	1 (≈ 1 µM)	0.13 (≈ 0.13 µM)	CCCC(=O)O[C@H]1C(C)O[C@@H](O[C@@H]2C(C)O[C@@H](O[C@H]3[C@@H](CC=O)C[C@@H](C)[C@@H](O)CN(C)CCC[C@H](C/C=C/c4cnc5ccccc5c4)OC(=O)C[C@@H](O)[C@@H]3OC)C(O)C2N(C)C)CC1(C)OC(=O)CC (some centres unmarked) [Example 128]	–	–	–	–	–	–	–
0.03 (≈ 0.03 µM)	8 (≈ 8 µM)	0.5 (≈ 0.5 µM)	0.015 (≈ 0.015 µM)	0.06 (≈ 0.06 µM)	1 (≈ 1 µM)	0.13 (≈ 0.13 µM)	CCCC(=O)O[C@H]1C(C)O[C@@H](O[C@@H]2C(C)O[C@@H](O[C@H]3[C@@H](CC=O)C[C@@H](C)[C@@H](O)CN(C)CCC[C@H](C/C=C/c4cncc5ccccc45)OC(=O)C[C@@H](O)[C@@H]3OC)C(O)C2N(C)C)CC1(C)OC(=O)CC (some centres unmarked) [Example 129]	–	–	–	–	–	–	–
